The test system of experiment [1] is Acinetobacter baumannii. In words: Potentiation of imipenem-induced antibacterial activity against OXA-58 producing Acinetobacter baumannii ATCC 17978 assessed as fold change in imipenem MIC. The format is functional.
Experiment [2] concerns Acinetobacter baumannii. In words: Potentiation of imipenem-induced antibacterial activity against OXA-235 producing Acinetobacter baumannii ATCC 17978 assessed as fold change in imipenem MIC. The format is functional.
In experiment [3] the test system is Acinetobacter baumannii. Kind of experiment: Potentiation of imipenem-induced antibacterial activity against OXA-23 producing Acinetobacter baumannii ATCC 17978 assessed as fold change in imipenem MIC. The format is functional.
For experiment [4], the system named is Acinetobacter baumannii. In words: Potentiation of imipenem-induced antibacterial activity against OXA-24 producing Acinetobacter baumannii ATCC 17978 assessed as fold change in imipenem MIC. The format is functional.
Experiment [5] deals with Acinetobacter baumannii. Kind of experiment: Potentiation of imipenem-induced antibacterial activity against OXA-143 producing Acinetobacter baumannii ATCC 17978 assessed as fold change in imipenem MIC. The format is functional.
Experiment [6] has as its system Pseudomonas aeruginosa. In words: Antibacterial activity against Pseudomonas aeruginosa assessed as inhibition of bacterial growth incubated for 18 to 48 hrs by two-fold serial dilution method. The format is functional. The following applies: time 18-48 hrs.
In a further experiment the target is DNA gyrase (Escherichia coli, UniProt P0AES4+P0AES6). Kind of experiment: Inhibition of Escherichia coli DNA gyrase ATPase activity using pBR322 as substrate incubated for 10 mins in presence of NADH and ATP by supercoiling assay. The format is protein-complex assay.
In experiment [7] the test system is Escherichia coli. In words: Antibacterial activity against Escherichia coli JW5503 harbouring tolC-knock out mutant assessed as inhibition of bacterial growth incubated for 24 hrs by CLSI protocol based broth microdilution method. The format is functional.
Experiment [8] deals with Klebsiella pneumoniae. In words: Antibacterial activity against NDM-1 producing Klebsiella pneumoniae assessed as inhibition of bacterial growth by CLSI protocol based broth microdilution method. The format is functional. A general note: Dilution methods test growth across graded concentrations, often in twofold steps.
Experiment [9] has as its system Stenotrophomonas maltophilia. Kind of experiment: Antibacterial activity against L1 producing Stenotrophomonas maltophilia assessed as inhibition of bacterial growth by CLSI protocol based broth microdilution method. The format is functional.
Experiment [10] deals with Escherichia coli. In words: Antibacterial activity against NDM-1 producing Escherichia coli assessed as inhibition of bacterial growth by CLSI protocol based broth microdilution method. The format is functional.
The test system of experiment [11] is Klebsiella pneumoniae. In words: Antibacterial activity against KPC-2 producing Klebsiella pneumoniae assessed as inhibition of bacterial growth by CLSI protocol based broth microdilution method. The format is functional.
For experiment [12], the system named is Acinetobacter baumannii. In words: Antibacterial activity against OXA-23 producing Acinetobacter baumannii assessed as inhibition of bacterial growth by CLSI protocol based broth microdilution method. The format is functional.
The subject of experiment [13] is Pseudomonas aeruginosa. In words: Antibacterial activity against VIM-2 producing Pseudomonas aeruginosa assessed as inhibition of bacterial growth by CLSI protocol based broth microdilution method. The format is functional.
The test system of experiment [14] is Pseudomonas aeruginosa. Kind of experiment: Antibacterial activity against IMP-1 producing Pseudomonas aeruginosa assessed as inhibition of bacterial growth by CLSI protocol based broth microdilution method. The format is functional.
Experiment [15] concerns Klebsiella pneumoniae. In words: Antibacterial activity against KPC-3 producing Klebsiella pneumoniae assessed as inhibition of bacterial growth by CLSI protocol based broth microdilution method. The format is functional.

≈ marks a conversion by molar mass, not a printed value.

A word on the MIC: it is the lowest concentration found to suppress growth. As a reminder, the IC50 is the concentration that gives 50% inhibition. The MIC50 is an inhibitory concentration at the 50% level, which refers to growth in some studies and to a panel of isolates in others.

Regarding `C[C@]1(COC(=O)Cc2ccc(O)c(O)c2)[C@H](C(=O)O)N2C(=O)/C(=C/c3ccccn3)[C@H]2S1(=O)=O`, the “fold change (FC)” value in the experiment on Acinetobacter baumannii [1], in the experiment on Acinetobacter baumannii [2], with Acinetobacter baumannii [3], with Acinetobacter baumannii [4] and in the experiment on Acinetobacter baumannii [5] was 32 each time.
For the compound `CC(=O)NC[C@H]1CN(c2ccc(N3CCN(C(=O)Cn4cc(COC(=O)NCCCCNC(=O)c5cccc(O)c5O)nn4)CC3)c(F)c2)C(=O)O1`, the MIC in the experiment with Pseudomonas aeruginosa [6] worked out at 128 µM (≈ 92.9 µg/mL).
Take `Cc1[nH]c(C(=O)N[C@H]2CCc3nc(NC(=O)CNC(=O)c4ccc(O)c(O)c4)sc3C2)c(Cl)c1Cl`: the IC50 at DNA gyrase came out at 58 nM. For the same compound, the MIC in the experiment on Escherichia coli [7] was 14 µg/mL (≈ 26 µM).
With `CC(C)(O/N=C(\C(=O)N[C@@H]1C(=O)N2C(C(=O)[O-])=C(C[N+]3(CCNC(=O)c4ccc(O)c(O)c4Cl)CCCC3)CS[C@H]12)c1csc(N)n1)C(=O)O` [CEFIDEROCOL], the MIC50 (in the experiment with Klebsiella pneumoniae [8]; in experiment [9]; in the experiment with Escherichia coli [10]; in the experiment with Klebsiella pneumoniae [11]; in the experiment on Acinetobacter baumannii [12]; with Pseudomonas aeruginosa [13]) was 0.12 µg/mL (≈ 0.16 µM) each time. In addition, the MIC50 in the experiment on Pseudomonas aeruginosa [14] and with Klebsiella pneumoniae [15] was 0.12 µg/mL (≈ 0.16 µM) in each case.
In the case of `CC(=O)NC[C@H]1CN(c2ccc(N3CCOCC3)c(F)c2)C(=O)O1` [LINEZOLID], the MIC in the experiment on Pseudomonas aeruginosa [6] is greater than 1020 µM.

Source of the values: ChEMBL document CHEMBL5257085, “Siderophores: Chemical tools for precise antibiotic delivery” (Bioorg Med Chem Lett, 2023).
